Target: T1, Human AMPK α2ß2γ1 (Homo sapiens, UniProt O43741+P54646)
T1 construct: The full length cDNAs of human AMPK ß2 (NM_005399.3) and human AMPK α2 (NM_006252.3); The full length cDNAs of human AMPK ß2 (NM_005399.3); 6xHis (N); made in house; host or cells: Escherichia coli BL21 CodonPlus (DE3)-RIL
Test: Test Example 2: activator evaluation on phosphorylated human AMPK α2ß2γ1 (mobility-shift assay, FL-Peptide 7)
Type: biochemical
Settings: human AMPK α2ß2γ1 pre-phosphorylated with CaMKK2; for EC150 (compound concentration showing 150% relative to the control (100%)): 25° C., 2 hours, 1% DMSO; for Emax: control without compound = 100%, read-out: Emax (maximum rate of increase in activity within the measurement range)
Experimental: The full length cDNAs of human AMPK ß2 (NM_005399.3) and human AMPK α2 (NM_006252.3) were inserted into the MCS1 and MCS2 of the pETDuet-1 vector to prepare a human AMPK ß2 and human AMPK α2 (6× His tag at the 5′ terminus) expressing plasmid. The plasmid was cotransfected with an expression plasmid, in which the full length cDNA of human AMPK γ1 (NM_002733.3) had been inserted into pET28b(+), into BL21 CodonPlus (DE3)-RIL to obtain an expression strain. The expression strain was cultured in TB medium, followed by induction with 0.5 mM IPTG, and cultured at 25° C. for 3 hours and then harvested.
Preparation method of human CaMKK2 used to impart activity to AMPK An expression vector, in which the full length cDNA of human CAMKK ß (NM_172226.1) had been inserted into pGEX-6P-3, was transfected into BL21 Star (DE3). The expression strain was cultured in TB medium, followed by induction with 0.5 mM IPTG, and cultured at 25° C. for 3 hours and then harvested.
Thus, phosphorylation treatment was carried out as pretreatment.
Human AMPK α2ß2γ1 in an amount to give a conversion rate of approximately 10% by reaction for 2 hours, and CaMKK2 in an amount capable of sufficiently imparting activity to AMPK for one hour were mixed in a buffer solution consisting of a 50 mM HEPES-NaOH buffer solution (pH 7.0), 100 mM NaCl, 5 mM magnesium chloride, 0.1% bovine serum albumin, 0.2 mM sodium orthovanadate(V), 1 mM ethylene glycol-bis(2-aminoethyl ether)-N,N,N′,N′-tetraacetic acid (EGTA), 5 mM disodium ß-glycerophosphate, 1 mM dithiothreitol and 0.2 mM ATP, and the resulting liquid was left to stand at 25° C. for 1 to 1.5 hours to sufficiently phosphorylate AMPK.
The resulting liquid was left to stand for 10 minutes.
The resulting liquid was allowed to react at 25° C. for 2 hours, and 10 μl of 20 mM EDTA was added thereto to stop the reaction.
To detect phosphorylated fluorescent substrates, the reaction mixture was applied to a measuring device, LabChip EZ Reader II manufactured by Caliper Life Science, Inc., for detecting fluorescence by using differences in mobility due to differences in charge. The setting conditions for the device were pressure, −1.5 PSI; upstream voltage, −2250 V; downstream voltage, −400 V; post sample buffer sip time, 40 seconds; final delay, 120 seconds; and peak order, Product First.
A conversion rate was calculated from the peak heights of the obtained substrate and product. The conversion rate when not containing a compound was used as a control, and a concentration dependent curve was made by plotting the rate of increase in activity to the control at each concentration of a compound.

T1 sequence (P54646 whole entry): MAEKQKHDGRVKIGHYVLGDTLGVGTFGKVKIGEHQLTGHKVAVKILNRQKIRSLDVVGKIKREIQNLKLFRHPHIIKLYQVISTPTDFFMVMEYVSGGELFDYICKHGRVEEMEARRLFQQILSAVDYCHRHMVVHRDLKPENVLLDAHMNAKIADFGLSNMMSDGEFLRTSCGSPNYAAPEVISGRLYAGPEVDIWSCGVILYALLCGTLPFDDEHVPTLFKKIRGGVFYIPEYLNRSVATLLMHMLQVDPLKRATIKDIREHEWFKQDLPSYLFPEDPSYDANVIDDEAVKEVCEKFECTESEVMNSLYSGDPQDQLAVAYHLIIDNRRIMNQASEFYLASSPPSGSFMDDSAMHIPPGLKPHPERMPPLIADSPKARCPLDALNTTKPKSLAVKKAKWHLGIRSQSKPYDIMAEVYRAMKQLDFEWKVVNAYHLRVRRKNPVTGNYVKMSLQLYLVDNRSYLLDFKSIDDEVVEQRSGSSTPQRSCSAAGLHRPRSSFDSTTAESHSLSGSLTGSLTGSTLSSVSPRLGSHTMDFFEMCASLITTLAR
T1 sequence (O43741 whole entry): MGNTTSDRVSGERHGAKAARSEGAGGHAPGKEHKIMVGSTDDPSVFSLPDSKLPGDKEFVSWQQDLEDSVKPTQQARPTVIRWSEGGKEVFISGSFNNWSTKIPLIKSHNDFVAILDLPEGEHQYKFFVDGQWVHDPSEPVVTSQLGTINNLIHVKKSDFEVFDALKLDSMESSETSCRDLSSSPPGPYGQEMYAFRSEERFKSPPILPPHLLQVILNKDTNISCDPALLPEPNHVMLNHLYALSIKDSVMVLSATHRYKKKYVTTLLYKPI
T1 sequence (P54619 whole entry partner): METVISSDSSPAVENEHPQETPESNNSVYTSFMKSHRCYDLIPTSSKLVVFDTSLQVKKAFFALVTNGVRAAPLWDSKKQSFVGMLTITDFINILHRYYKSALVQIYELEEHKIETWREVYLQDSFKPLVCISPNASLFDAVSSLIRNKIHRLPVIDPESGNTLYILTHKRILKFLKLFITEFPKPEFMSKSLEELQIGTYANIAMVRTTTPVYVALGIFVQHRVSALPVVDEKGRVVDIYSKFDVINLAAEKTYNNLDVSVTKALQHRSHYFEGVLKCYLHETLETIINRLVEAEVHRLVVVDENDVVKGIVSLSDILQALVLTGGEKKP

SMILES | EC150 (compound concentration showing 150% relative to the control (100%)) [nM] | Emax [%]
CN=S(C)(=N)c1ccc(-c2ccc(-c3nc4nc(O[C@@H]5CO[C@H](CO)C5(F)F)[nH]c4cc3Cl)cc2)cc1 (some centres unmarked) [Compound (I-2-2)] | 3.1 | 604
CS(C)(=O)=Nc1ccc(-c2ccc(-c3nc4nc(O[C@@H]5CO[C@H](CO)C5(F)F)[nH]c4cc3F)cc2)nc1 [Compound (I-2-7)] | 3.1 | 445
CS(C)(=O)=Nc1ccc(-c2ccc(-c3nc4nc(O[C@@H]5CO[C@H](CO)C5(F)F)[nH]c4cc3Cl)cc2)cc1 [Compound (I-1-7)] | 2.1 | 504
CS(C)(=O)=NC1CC=C(c2ccc(-c3nc4nc(O[C@@H]5CO[C@H](CO)C5(F)F)[nH]c4cc3Cl)cc2)CC1 (some centres unmarked) [Compound (I-2-9)] | 1.3 | 652
CS(C)(=O)=Nc1ccc(-c2ccc(-c3nc4nc(O[C@@H]5CO[C@H](CO)[C@@H]5F)[nH]c4cc3Cl)cc2)cc1 [Compound (I-1-6)] | 7.4 | 514
CS(C)(=O)=Nc1ccc(-c2ccc(-c3nc4nc(O[C@@H]5CO[C@H]6[C@@H]5OC[C@H]6O)[nH]c4cc3F)cc2)cc1 [Compound (I-1-2)] | 0.93 | 556
CNS(C)(=O)=Nc1ccc(-c2ccc(-c3nc4nc(O[C@@H]5CO[C@H](CO)C5(F)F)[nH]c4cc3Cl)cc2)cc1 (some centres unmarked) [Compound (I-1-12)] | 2.4 | 649
CC(=O)NC(C)(C)c1ccc(Oc2nc3nc(-c4ccc(-c5ccc(N=S(C)(C)=O)cc5)cc4)c(Cl)cc3[nH]2)cc1 [Compound (I-1-4)] | 3.8 | 364
CS(C)(=O)=Nc1ccc(-c2ccc(-c3nc4nc(O[C@@H]5CO[C@H](CO)C5(F)F)[nH]c4cc3Cl)c(F)c2)cc1 [Compound (I-2-3)] | 4.2 | 609
CS(C)(=O)=Nc1ccc(-c2ccc(-c3nc4nc(O[C@@H]5CO[C@H](CO)[C@H]5F)[nH]c4cc3Cl)cc2)cc1 [Compound (I-1-5)] | 1.4 | 539
COC(=O)NC1CC=C(c2ccc(-c3nc4nc(O[C@@H]5CO[C@H](CO)C5(F)F)[nH]c4cc3Cl)cc2)CC1 (some centres unmarked) [Compound (I-1-9)] | 9.5 | 389
CCS(=O)(CC)=Nc1ccc(-c2ccc(-c3nc4nc(O[C@@H]5CO[C@H](CO)C5(F)F)[nH]c4cc3F)cc2)cc1 [Compound (I-2-12)] | 0.54 | 595
CS(C)(=O)=Nc1ccc(-c2ccc(-c3nc4nc(OCCO)[nH]c4cc3Cl)cc2)cc1 [Compound (I-1-3)] | 19 | 235
CS(C)(=O)=Nc1ccc(-c2ccc(-c3nc4nc(O[C@@H]5CO[C@H](CO)C5(F)F)[nH]c4cc3Cl)cc2)nc1 [Compound (I-2-4)] | 9.7 | 493
CS(C)(=O)=Nc1ccc(-c2ccc(-c3nc4nc(O[C@@H]5CO[C@H](CO)C5(F)F)[nH]c4cc3F)cc2)cc1 [Compound (I-1-11)] | 1.1 | 601
CCS(=O)(CC)=Nc1ccc(-c2ccc(-c3nc4nc(O[C@@H]5CO[C@H](CO)C5(F)F)[nH]c4cc3Cl)cc2)cc1 [Compound (I-2-5)] | 6.2 | 575
CS(C)(=O)=Nc1ccc(-c2ccc(-c3nc4nc(O[C@@H]5CO[C@H](CO)[C@H]5F)[nH]c4cc3F)cc2)cc1 [Compound (I-1-10)] | 3.1 | 399
CS(C)(=O)=Nc1ccc(-c2ccc(-c3nc4nc(O[C@@H]5CO[C@H](CO)C5(F)F)[nH]c4cc3F)c(F)c2)cc1 [Compound (I-2-8)] | 0.75 | 619
COC(=O)NC1CC=C(c2ccc(-c3nc4nc(O[C@@H]5CO[C@H](CO)[C@H]5F)[nH]c4cc3Cl)cc2)CC1 (some centres unmarked) [Compound (I-1-8)] | 21 | 412
O=S1(=Nc2ccc(-c3ccc(-c4nc5nc(O[C@@H]6CO[C@H](CO)C6(F)F)[nH]c5cc4Cl)cc3)cc2)CCOCC1 [Compound (I-2-6)] | 3.0 | 578
CS(C)(=O)=NC1CC=C(c2ccc(-c3nc4nc(O[C@@H]5CO[C@H](CO)C5(F)F)[nH]c4cc3F)cc2)CC1 (some centres unmarked) [Compound (I-2-10)] | 2.1 | 604
CN=S(C)(=N)c1ccc(-c2ccc(-c3nc4nc(O[C@@H]5CO[C@H](CO)C5(F)F)[nH]c4cc3F)cc2)cc1 (some centres unmarked) [Compound (I-2-11)] | 1.2 | 649

Reference: patent US10406140B2, “5-substituted benzimidazole and 5-substituted azabenzimidazole derivative both having AMPK activation effect” (Shionogi & Co., Ltd., priority 2016, dated 2019)
